Data published in patent publication US20070202206A1, “Morinda Citrifolia Leaf Juice And Leaf Extract Based Formulations” (priority 2005, published 2007).

Columns and labels:
[1] = system: Propionibacterium acnes (ATCC 6919); assay: Microbial in vitro assay, Propionibacterium acnes; assay type: cell-based; settings: Microbial In Vitro Assays, Anaerobes
[2] = system: human epidermoid carcinoma cell line-A431; assay: cells; assay type: cell-based; settings: for Percent Grown: A431, 72-hour exposure
Experimental: In this example, assays were performed to detect changes in cell proliferation based on the ability of viable cells to cause alamarBlue to change from non-fluorescent blue to a reduced, fluorescent red form. With the results obtained from the alamarBlue reaction, cell proliferation can be quantified and metabolic activity of viable cells can be examined. Test compounds including Morinda citrifolia leaf extract, leaf juice, and roast leaf were tested for their effects on […]
Morinda citrifolia leaf extract, leaf juice, and roast leaf were provided by Tahitian Noni International, Inc. for in vitro anti-tumor studies. The Morinda citrifolia compounds were dissolved in sterile distilled water and then diluted with sterile distilled water to obtain initial working solutions of 10000, 1000, 100, 10, and 1 μg/ml for the leaf extract and roast leaf, as well as 100, 10, 1, 0.1 and 0.01% for the leaf juice.
The tumor cell line, A431 (human epidermoid carcinoma), obtained from American Type Culture Collection (ATCC CRL-1555), was incubated in an air atmosphere of 5% CO2 at 37° C. The culture medium was used with Dulbecco's Modified Eagle's medium, 90%; Fetal Bovine Serum, 10% and supplemented with 1% Antibiotic-Antimycotic.
The anti-proliferation for the test substances was evaluated. Aliquots of 100 μl of cell suspension (about 3×10^3/well) were placed in 96-well microtiter plates in an atmosphere of 5% CO2 at 37° C. […] At the end of incubation, 20 μl of 90% alamarBlue reagent was added to each well for another 6-hour incubation before detection of cell viability by fluorescent intensity. Fluorescent intensity was measured using a Spectrafluor Plus plate reader with excitation at 530 nm and demission at 590 nm.
IC50, TGI, and LC50 values were then determined. […] TGI (Total Growth Inhibition) is the test compound concentration where the number or mass of treated cells at the end of the experiment was equal to that at time0. […] The measured results were calculated by the following formula: PG(%)=100×(Mean Ftest−Mean Ftime0)/(Mean Fctrl−Mean Ftime0)
If (Mean Ftest−Mean Ftime0)<0, then PG(%)−100×(Mean Ftest−Mean Ftime0)/(Mean Ftime0−Mean Fblank)
Where: • PG=percent growth • Mean Ftime0=The average of 2 measured fluorescent intensities of reduced alamarBlue at the time just before exposure of cells to the test substance. • Mean Ftest=The average of 2 measured fluorescent intensities of alamarBlue after 72-hour exposure of cells to the test substance. • Mean Fctrl, =The average of 2 measured fluorescent intensities of alamarBlue after 72-hour incubation without the test substance. • Mean Fblank=The average of 2 measured fluorescent intensities of alamarBlue in medium without cells after 72-hour incubation.
A decrease of 50% or more (≧50%) in fluorescent intensity relative to the vehicle-treated control indicated significant cell growth inhibition, cytostatic or cytotoxic activity, and a semi-quantitative IC50, TGI, and LC50 were then determined by nonlinear regression using GraphPad Prism (GraphPad Software, USA).

SMILES	Reference Compound Data, Concurrent [1] [µg/mL]	Percent Grown ([2]; concentration 0.001 μM) [%]	Percent Grown ([2]; concentration 0.01 μM) [%]	Percent Grown ([2]; concentration 0.1 μM) [%]	Percent Grown ([2]; concentration 1 μM) [%]	Percent Grown ([2]; concentration 10 μM) [%]	IC50 ([2]; Homo sapiens, A-431, Tumor, Skin (A431), semi-quantitative, nonlinear regression, read-out: IC50 (50% Inhibition Concentration)) [nM]	TGI (Total Growth Inhibition) ([2]; Tumor, Skin (A431), semi-quantitative, nonlinear regression) [nM]
CC1(C)S[C@@H]2[C@H](NC(=O)[C@H](N)c3ccccc3)C(=O)N2[C@H]1C(=O)O [Ampicillin]	0.1							
CO[C@@]12[C@H](COC(N)=O)C3=C(C(=O)C(C)=C(N)C3=O)N1C[C@@H]1N[C@@H]12 [Mitomycin]		101	82	7	35	97	35	190
